From patent US10023543B2 (CELGENE QUANTICEL RESEARCH, INC., priority 2014, dated 2018)
Counter-ions that a name gives are not always drawn. Like-named read-outs stand apart in the source and are kept apart here.

Columns and labels:
Kasumi-1 = Kasumi-1 AML cell line proliferation assay (Cell-MTS assay); type: cell-based; conditions: Homo sapiens, 168 hours
Text: Colorimetric cellular assay to assess the ability of LSD-1 small molecule inhibitors to effect the proliferation of the established AML cancer cell line Kasumi-1.
This Cell-MTS assay is a 7-day plate based colorimetric assay which quantifies the amount of newly generated NADH in the presence and absence of test compound. These NADH levels are used as a proxy for the quantification of cancer cell proliferation.
The established cancer cell line Kasumi-1 with a verified p53 mutation were purchased from American Type Culture Collection (ATCC) and routinely passaged according to ATCC published protocols. For routine assay these cells were seeded at a density of 20,000 cells per 96-well. […] At the end of this compound incubation period, 80 μl of media is removed and 20 μL of CellTiter 96® AQueous Non-Radioactive Cell Proliferation Assay solution (Promega) is added. The cells are incubated until the OD490 is >0.6. IC50 values are calculated using the IDBS XLfit software package and include background subtracted OD490 values and normalization to DMSO controls.

THP-1 (AML) cells = test: LSD1 CD11b cellular assay (flow cytometry); type: cell-based; conditions: Homo sapiens, THP-1, 96 h
[1] = CD11b expressing cells, 4 days, read-out: THP-1 IC50

| SMILES | IC50 (THP-1 (AML) cells; [1]) [µM] | IC50 (Kasumi-1) [nM] | IC50 (THP-1 (AML) cells; read-out: THP-1 IC50 (μM)) [µM] |
| --- | --- | --- | --- |
| Cn1c(N2CCC(N)CC2)nc(-c2ccc(C#N)c(F)c2)c(-c2cnn(CC(F)(F)F)c2)c1=O [Example 34, 4-{2-(4-amino-piperidin-1-yl)-1-methyl-6-oxo-5-[1-(2,2,2-trifluoro-ethyl)-1H-pyrazol-4-yl]-1,6-dihydro-pyrimidin-4-yl}-2-fluoro-benzonitrile] | < 0.1 | < 100 | – |
| Cc1ccc(-c2c(-c3ccc(C#N)c(F)c3)nc(N3CCC(N)CC3)n(C)c2=O)cn1 [Example 9] | < 0.1 | < 100 | – |
| CN(C)C1CCN(c2nc(-c3ccc(C#N)c(F)c3)c(-c3ccc4nn(C)cc4c3)c(=O)n2C)CC1 [Example 71, 4-[2-(4-dimethylamino-piperidin-1-yl)-1-methyl-5-(2-methyl-2H-indazol-5-yl)-6-oxo-1,6-dihydro-pyrimidin-4-yl]-2-fluoro-benzonitrile] | < 0.1 | < 100 | – |
| Cc1ccc(-c2c(-c3ccc(C#N)c(F)c3)nc(N3CCC(N(C)C)CC3)n(C)c2=O)cn1 [Example 82, 4-[2-(4-dimethylamino-piperidin-1-yl)-1-methyl-5-(6-methyl-pyridin-3-yl)-6-oxo-1,6-dihydro-pyrimidin-4-yl]-2-fluoro-benzonitrile] | 0.1 to 1 | – | – |
| Cn1c(N2CCC(N)CC2)nc(-c2ccc(C#N)c(F)c2)c(-c2ccc(F)c(F)c2)c1=O [Example 104, 4-[2-(4-aminopiperidin-1-yl)-5-(3,4-difluorophenyl)-1-methyl-6-oxopyrimidin-4-yl]-2-fluorobenzonitrile] | < 0.1 | – | – |
| COc1ccc(-c2c(-c3ccc(C#N)cc3)nc(N3CCC(N)CC3)n(C)c2=O)cc1F [Example 5] | – | < 100 | < 0.1 |
| CCOc1ccc(-c2c(-c3ccc(C#N)c(F)c3)nc(N3CCC(N)CC3)n(C)c2=O)cn1 [Example 94, 4-[2-(4-aminopiperidin-1-yl)-5-(6-ethoxypyridin-3-yl)-1-methyl-6-oxopyrimidin-4-yl]-2-fluorobenzonitrile] | < 0.1 | – | – |
| COc1ccc(-c2c(-c3ccc(C#N)c(F)c3)nc(N3CCCNCC3)n(C)c2=O)cn1 [Example 61, 4-[2-[1,4]diazepan-1-yl-5-(6-methoxy-pyridin-3-yl)-1-methyl-6-oxo-1,6-dihydro-pyrimidin-4-yl]-2-fluoro-benzonitrile] | < 0.1 | – | – |
| Cc1ccc(-c2c(-c3ccc(C#N)cc3)nc(N3CCC(N)CC3)n(C)c2=O)cn1 [Example 4, 4-[2-(4-amino-piperidin-1-yl)-1-methyl-5-(6-methyl-pyridin-3-yl)-6-oxo-1,6-dihydro-pyrimidin-4-yl]-benzonitrile] | < 0.1 | 100 to 1000 | – |
| CNCC1CN(c2nc(-c3ccc(C#N)c(F)c3)c(-c3ccc(OC)cc3)c(=O)n2C)C1 [Example 70, 2-fluoro-4-[5-(4-methoxy-phenyl)-1-methyl-2-(3-methylaminomethyl-azetidin-1-yl)-6-oxo-1,6-dihydro-pyrimidin-4-yl]-benzonitrile] | < 0.1 | – | – |
| COc1ccc(-c2c(-c3ccc(C#N)c(F)c3)nc(N3CCC(N)CC3)n(CC(N)=O)c2=O)cc1 [Example 16, 2-[2-(4-amino-piperidin-1-yl)-4-(4-cyano-3-fluoro-phenyl)-5-(4-methoxy-phenyl)-6-oxo-6H-pyrimidin-1-yl]-acetamide] | < 0.1 | – | – |
| Cc1ccc(-c2c(-c3ccc(C#N)cc3)nc(N3CCC(N)CC3)n(C)c2=O)cc1 [Example 1, 4-(2-(4-aminopiperidin-1-yl)-1-methyl-6-oxo-5-p-tolyl-1,6-dihydropyrimidin-4-yl)benzonitrile, HCl salt] | – | < 100 | < 0.1 |
| CNC1CCN(c2nc(-c3ccc(C#N)c(F)c3)c(-c3ccc(OC)cc3)c(=O)n2C)CC1 [Example 11, 2-fluoro-4-[5-(4-methoxy-phenyl)-1-methyl-2-(4-methylamino-piperidin-1-yl)-6-oxo-1,6-dihydro-pyrimidin-4-yl]-benzonitrile] | < 0.1 | – | – |
| COc1ccc(-c2c(-c3ccc(C#N)c(F)c3)nc(N3CC[C@H](N)C3)n(C)c2=O)cc1F [Example 29, 4-[2-((3S)-3-amino-pyrrolidin-1-yl)-5-(3-fluoro-4-methoxy-phenyl)-1-methyl-6-oxo-1,6-dihydro-pyrimidin-4-yl]-2-fluoro-benzonitrile] | 0.1 to 1 | – | – |
| COc1ccc(-c2c(-c3ccc(C#N)c(F)c3)nc(N3CCCNCC3)n(C)c2=O)cc1F [Example 46, 4-[2-[1,4]diazepan-1-yl-5-(3-fluoro-4-methoxy-phenyl)-1-methyl-6-oxo-1,6-dihydro-pyrimidin-4-yl]-2-fluoro-benzonitrile] | < 0.1 | – | – |
| Cn1c(N2CCC(N)CC2)nc(-c2ccc(C#N)c(F)c2)c(-c2ccc(N3CCOCC3)nc2)c1=O [Example 68, 4-[2-(4-amino-piperidin-1-yl)-1-methyl-5-(6-morpholin-4-yl-pyridin-3-yl)-6-oxo-1,6-dihydro-pyrimidin-4-yl]-2-fluoro-benzonitrile] | < 0.1 | – | – |

More lines, main results first:

| IC50 (THP-1 (AML) cells; [1]) [µM] | SMILES | IC50 (Kasumi-1) [nM] | IC50 (THP-1 (AML) cells; read-out: THP-1 IC50 (μM)) [µM] |
| --- | --- | --- | --- |
| < 0.1 | Cn1cc2cc(-c3c(-c4ccc(C#N)cc4)nc(N4CCC(N)CC4)n(C)c3=O)ccc2n1 [Example 24, 4-[2-(4-aminopiperidyl)-1-methyl-5-(2-methyl(2H-indazol-5-yl))-6-oxohydropyrimidin-4-yl]benzenecarbonitrile] | < 100 | – |
| < 0.1 | Cn1cc2cc(-c3c(-c4ccc(C#N)c(F)c4)nc(N4CCCNCC4)n(C)c3=O)ccc2n1 [Example 66, 4-[2-[1,4]diazepan-1-yl-1-methyl-5-(2-methyl-2H-indazol-5-yl)-6-oxo-1,6-dihydro-pyrimidin-4-yl]-2-fluoro-benzonitrile] | < 100 | – |
| < 0.1 | COc1ccc(-c2c(-c3ccc(C#N)c(F)c3)nc(N3CCC(N)CC3)n(C)c2=O)cc1 [Example 6, 4-[2-(4-amino-piperidin-1-yl)-5-(4-methoxy-phenyl)-1-methyl-6-oxo-1,6-dihydro-pyrimidin-4-yl]-2-fluoro-benzonitrile] | < 100 | – |
| < 0.1 | Cn1c(N2CCC(N)CC2)nc(-c2ccc(C#N)cc2)c(-c2cnn(CC(F)(F)F)c2)c1=O [Example 36, 4-{2-(4-amino-piperidin-1-yl)-1-methyl-6-oxo-5-[1-(2,2,2-trifluoro-ethyl)-1H-pyrazol-4-yl]-1,6-dihydro-pyrimidin-4-yl}-benzonitrile] | < 100 | – |
| < 0.1 | COc1ccc(-c2c(-c3ccc(C#N)cc3)nc(N3CCC(N)CC3)n(C)c2=O)cn1 [Example 3, 4-[2-(4-amino-piperidin-1-yl)-5-(6-methoxy-pyridin-3-yl)-1-methyl-6-oxo-1,6-dihydro-pyrimidin-4-yl]-benzonitrile] | < 100 | – |
| < 0.1 | CN(C)c1ccc(-c2c(-c3ccc(C#N)c(F)c3)nc(N3CCC(N)CC3)n(C)c2=O)cn1 [Example 57, 4-[2-(4-amino-piperidin-1-yl)-5-(6-dimethylamino-pyridin-3-yl)-1-methyl-6-oxo-1,6-dihydro-pyrimidin-4-yl]-2-fluoro-benzonitrile] | – | – |
| < 0.1 | Cn1c(N2CCC(N)CC2)nc(-c2ccc(C#N)c(F)c2)c(-c2ccc(N3CCCC3)nc2)c1=O [Example 60, 4-[2-(4-amino-piperidin-1-yl)-1-methyl-6-oxo-5-(6-pyrrolidin-1-yl-pyridin-3-yl)-1,6-dihydro-pyrimidin-4-yl]-2-fluoro-benzonitrile] | – | – |
| < 0.1 | Cn1c(N2CCC(N)CC2)nc(-c2ccc(C#N)c(F)c2)c(-c2ccc3[nH]ncc3c2)c1=O [Example 88, 4-[2-(4-aminopiperidin-1-yl)-5-(1H-indazol-5-yl)-1-methyl-6-oxopyrimidin-4-yl]-2-fluorobenzonitrile] | < 100 | – |
| 0.1 to 1 | C#Cc1c(-c2ccc(C#N)c(F)c2)nc(N2CCC(N)CC2)n(C)c1=O [Example 110] | – | – |
| < 0.1 | Cn1c(N2CCC(N)CC2)nc(-c2ccc(C#N)c(F)c2)c(-c2ccc(CO)cc2)c1=O [Example 100, 4-[2-(4-aminopiperidin-1-yl)-5-[4-(hydroxymethyl)phenyl]-1-methyl-6-oxopyrimidin-4-yl]-2-fluorobenzonitrile] | – | – |
| < 0.1 | Cn1c(N2CCC(N)CC2)nc(-c2ccc(C#N)c(F)c2)c(-c2cccc(F)c2)c1=O [Example 102, 4-[2-(4-aminopiperidin-1-yl)-5-(3-fluorophenyl)-1-methyl-6-oxopyrimidin-4-yl]-2-fluorobenzonitrile] | – | – |
| < 0.1 | COc1ccc(-c2c(-c3ccc(C#N)c(F)c3)nc(N3CCC(N)CC3)[nH]c2=O)cc1 [Example 122, 4-[2-(4-amino-piperidin-1-yl)-5-(4-methoxy-phenyl)-6-oxo-1,6-dihydro-pyrimidin-4-yl]-2-fluoro-benzonitrile] | – | – |
| < 0.1 | COc1c(F)cc(-c2c(-c3ccc(C#N)cc3)nc(N3CCC(N)CC3)n(C)c2=O)cc1F [Example 38, 4-[2-(4-aminopiperidyl)-5-(3,5-difluoro-4-methoxyphenyl)-1-methyl-6-oxohydropyrimidin-4-yl]benzenecarbonitrile] | – | – |
| < 0.1 | Cn1c(N2CCC(N)CC2)nc(-c2ccc(C#N)c(F)c2)c(-c2ccc(C(F)(F)F)nc2)c1=O [Example 23, 4-{2-(4-aminopiperidyl)-1-methyl-6-oxo-5-[6-(trifluoromethyl) (3-pyridyl)]hydropyrimidin-4-yl}-2-fluorobenzenecarbonitrile] | – | – |
| 0.1 to 1 | COc1ccc(-c2c(-c3ccc(Cl)c(F)c3)nc(N3CCC(N)CC3)n(C)c2=O)cc1 [Example 111, 2-(4-amino-piperidin-1-yl)-6-(4-chloro-3-fluoro-phenyl)-5-(4-methoxy-phenyl)-3-methyl-3H-pyrimidin-4-one] | – | – |
